From paper PMC5862592, “CDK8/19 inhibition induces premature G1/S transition and ATR-dependent cell death in prostate cancer cells” (Oncotarget, 2018)
Like-named read-outs stand apart in the source and are kept apart here.

Legend:
Assay in all cases: biochemical
Set-up in all cases: KINOMEscan active site-directed competition binding assay (DiscoveRx), 456 kinases, per cent of control at 300 nM
Details in all cases: read-out: Percent of Control (%)
CAMK1D = CAMK1D (Homo sapiens, UniProt Q8IU85)
In short: (§1)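 At 300 nmol/L, compounds were assessed for kinase binding in an active site-directed competition format covering 456 kinases.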

DAPK1 = DAPK1 (Homo sapiens, UniProt P53355)
In short: as §1

PLK2 = PLK2 (Homo sapiens, UniProt Q9NYY3)
In short: as §1

RIPK2 = RIPK2 (Homo sapiens, UniProt O43353)
In short: as §1

WNK3 = WNK3 (Homo sapiens, UniProt Q9BYP7)
In short: as §1

DLK = target: T1, DLK (Homo sapiens, UniProt Q12852)
T1 construct: gene MAP3K12
In short: as §1

CIT = CIT (Homo sapiens, UniProt O14578)
In short: as §1

CASK = CASK (Homo sapiens, UniProt O14936)
In short: as §1

ROS1 = ROS1 (Homo sapiens, UniProt P08922)
In short: as §1

PRKX = PRKX (Homo sapiens, UniProt P51817)
In short: as §1

CSNK1A1L = CSNK1A1L (Homo sapiens, UniProt Q8N752)
In short: as §1

MAPKAPK5 = MAPKAPK5 (Homo sapiens, UniProt Q8IW41)
In short: as §1

EPHB1 = EPHB1 (Homo sapiens, UniProt P54762)
In short: as §1

CLK2 = CLK2 (Homo sapiens, UniProt P49760)
In short: as §1

DAPK2 = DAPK2 (Homo sapiens, UniProt Q9UIK4)
In short: as §1

MLCK = target: T2, MLCK (Homo sapiens, UniProt Q32MK0)
T2 construct: gene MYLK3
In short: as §1

EGFR(L858R) = EGFR(L858R) (Homo sapiens, UniProt P00533, L858R)
In short: as §1

NEK3 = NEK3 (Homo sapiens, UniProt P51956)
In short: as §1

MKNK1 = MKNK1 (Homo sapiens, UniProt Q9BUB5)
In short: as §1

NIK = target: T3, NIK (Homo sapiens, UniProt Q99558)
T3 construct: gene MAP3K14
In short: as §1

SIK2 = SIK2 (Homo sapiens, UniProt Q9H0K1)
In short: as §1

IKK-alpha = target: T4, IKK-alpha (Homo sapiens, UniProt O15111)
T4 construct: gene CHUK
In short: as §1

T3 sequence (Q99558 whole entry): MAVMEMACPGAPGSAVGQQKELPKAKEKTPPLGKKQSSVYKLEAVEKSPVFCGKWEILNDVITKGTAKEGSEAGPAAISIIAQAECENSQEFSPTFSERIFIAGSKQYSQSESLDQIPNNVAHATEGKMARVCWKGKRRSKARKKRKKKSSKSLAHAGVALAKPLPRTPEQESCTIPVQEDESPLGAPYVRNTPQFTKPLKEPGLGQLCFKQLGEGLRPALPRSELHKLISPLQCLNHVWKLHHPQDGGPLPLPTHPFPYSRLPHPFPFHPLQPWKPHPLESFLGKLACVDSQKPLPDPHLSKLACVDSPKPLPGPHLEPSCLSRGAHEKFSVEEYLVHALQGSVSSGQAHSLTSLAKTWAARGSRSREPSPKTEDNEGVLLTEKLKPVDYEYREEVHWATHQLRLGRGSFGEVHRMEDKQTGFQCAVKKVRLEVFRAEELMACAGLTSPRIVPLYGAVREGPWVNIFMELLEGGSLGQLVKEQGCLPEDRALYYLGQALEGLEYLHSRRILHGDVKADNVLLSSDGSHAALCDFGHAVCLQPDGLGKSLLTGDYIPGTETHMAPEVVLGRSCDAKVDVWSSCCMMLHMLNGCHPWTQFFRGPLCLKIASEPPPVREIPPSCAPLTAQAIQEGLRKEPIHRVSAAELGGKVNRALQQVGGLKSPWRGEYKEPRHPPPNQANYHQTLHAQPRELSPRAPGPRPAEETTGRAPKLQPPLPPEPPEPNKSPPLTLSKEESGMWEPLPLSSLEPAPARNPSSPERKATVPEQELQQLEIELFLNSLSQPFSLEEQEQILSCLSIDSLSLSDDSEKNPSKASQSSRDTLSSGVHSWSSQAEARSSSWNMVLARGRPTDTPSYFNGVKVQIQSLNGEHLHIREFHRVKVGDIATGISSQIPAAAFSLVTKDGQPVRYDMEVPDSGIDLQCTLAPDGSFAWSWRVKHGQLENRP
Chain of PLK2 (Q9NYY3 whole entry): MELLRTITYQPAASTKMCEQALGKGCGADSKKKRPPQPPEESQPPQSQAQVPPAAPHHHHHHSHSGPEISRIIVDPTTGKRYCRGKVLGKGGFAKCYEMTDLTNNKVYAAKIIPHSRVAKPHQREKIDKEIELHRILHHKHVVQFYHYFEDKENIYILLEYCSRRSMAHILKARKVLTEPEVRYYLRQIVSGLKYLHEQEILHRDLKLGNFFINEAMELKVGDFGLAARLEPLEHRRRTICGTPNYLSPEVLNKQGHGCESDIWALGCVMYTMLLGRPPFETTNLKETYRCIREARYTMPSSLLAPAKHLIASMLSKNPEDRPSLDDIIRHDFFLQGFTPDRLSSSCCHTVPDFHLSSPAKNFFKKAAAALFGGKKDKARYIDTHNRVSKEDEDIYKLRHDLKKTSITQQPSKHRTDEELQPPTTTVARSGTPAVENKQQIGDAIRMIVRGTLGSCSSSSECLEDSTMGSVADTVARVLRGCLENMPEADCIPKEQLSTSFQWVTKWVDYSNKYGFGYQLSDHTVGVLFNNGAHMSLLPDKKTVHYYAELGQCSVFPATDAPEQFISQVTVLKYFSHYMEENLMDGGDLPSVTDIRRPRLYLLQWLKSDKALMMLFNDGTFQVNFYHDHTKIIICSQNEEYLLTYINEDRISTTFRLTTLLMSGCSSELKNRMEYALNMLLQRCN
Chain of MAPKAPK5 (Q8IW41 whole entry): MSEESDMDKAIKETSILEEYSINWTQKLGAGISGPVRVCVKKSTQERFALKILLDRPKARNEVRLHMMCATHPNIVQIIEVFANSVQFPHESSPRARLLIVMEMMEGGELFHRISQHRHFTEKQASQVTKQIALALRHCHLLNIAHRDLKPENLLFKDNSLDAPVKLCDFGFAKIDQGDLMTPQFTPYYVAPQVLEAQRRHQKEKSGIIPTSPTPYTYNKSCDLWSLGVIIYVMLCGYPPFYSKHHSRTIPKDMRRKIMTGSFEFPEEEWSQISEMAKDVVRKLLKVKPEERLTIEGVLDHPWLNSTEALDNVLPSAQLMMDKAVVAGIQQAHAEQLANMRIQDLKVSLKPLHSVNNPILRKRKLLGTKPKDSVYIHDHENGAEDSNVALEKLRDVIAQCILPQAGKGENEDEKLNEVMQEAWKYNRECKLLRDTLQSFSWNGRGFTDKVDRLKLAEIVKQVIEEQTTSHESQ
Chain of DAPK1 (P53355 whole entry): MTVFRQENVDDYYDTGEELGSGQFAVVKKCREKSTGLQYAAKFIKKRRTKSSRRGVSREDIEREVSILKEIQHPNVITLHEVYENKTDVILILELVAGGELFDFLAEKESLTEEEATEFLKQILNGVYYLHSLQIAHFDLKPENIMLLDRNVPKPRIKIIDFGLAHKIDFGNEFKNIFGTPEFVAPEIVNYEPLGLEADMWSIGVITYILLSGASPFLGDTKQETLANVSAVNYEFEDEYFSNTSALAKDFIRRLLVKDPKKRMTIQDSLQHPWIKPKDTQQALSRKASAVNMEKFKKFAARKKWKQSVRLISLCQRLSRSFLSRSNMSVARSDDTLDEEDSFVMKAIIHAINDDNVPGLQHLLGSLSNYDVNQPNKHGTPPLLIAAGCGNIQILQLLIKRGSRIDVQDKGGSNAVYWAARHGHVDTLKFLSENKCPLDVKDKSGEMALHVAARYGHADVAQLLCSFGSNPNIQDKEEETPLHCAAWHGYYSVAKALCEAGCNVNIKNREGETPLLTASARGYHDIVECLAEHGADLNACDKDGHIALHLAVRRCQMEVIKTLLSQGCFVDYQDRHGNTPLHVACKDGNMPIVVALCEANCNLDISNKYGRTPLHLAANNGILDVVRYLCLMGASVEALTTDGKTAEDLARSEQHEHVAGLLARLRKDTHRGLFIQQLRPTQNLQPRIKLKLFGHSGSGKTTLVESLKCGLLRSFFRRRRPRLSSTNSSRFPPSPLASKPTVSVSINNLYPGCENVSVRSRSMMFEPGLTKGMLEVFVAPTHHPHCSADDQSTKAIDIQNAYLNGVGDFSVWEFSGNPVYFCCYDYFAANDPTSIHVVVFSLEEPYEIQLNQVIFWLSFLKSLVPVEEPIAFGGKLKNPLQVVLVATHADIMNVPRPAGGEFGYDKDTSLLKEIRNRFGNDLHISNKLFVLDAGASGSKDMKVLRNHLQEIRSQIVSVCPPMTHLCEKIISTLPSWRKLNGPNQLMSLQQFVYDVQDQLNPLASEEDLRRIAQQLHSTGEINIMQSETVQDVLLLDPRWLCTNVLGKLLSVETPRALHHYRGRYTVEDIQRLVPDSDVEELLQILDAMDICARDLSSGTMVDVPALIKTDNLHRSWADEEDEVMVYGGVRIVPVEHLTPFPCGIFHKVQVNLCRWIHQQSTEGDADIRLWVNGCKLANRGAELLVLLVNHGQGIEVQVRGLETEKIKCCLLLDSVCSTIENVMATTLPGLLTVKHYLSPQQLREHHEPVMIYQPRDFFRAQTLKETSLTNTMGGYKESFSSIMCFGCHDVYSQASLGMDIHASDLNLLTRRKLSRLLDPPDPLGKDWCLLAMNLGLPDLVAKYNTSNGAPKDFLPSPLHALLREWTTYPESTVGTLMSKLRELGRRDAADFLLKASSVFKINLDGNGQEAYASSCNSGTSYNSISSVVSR
Chain of DAPK2 (Q9UIK4 whole entry): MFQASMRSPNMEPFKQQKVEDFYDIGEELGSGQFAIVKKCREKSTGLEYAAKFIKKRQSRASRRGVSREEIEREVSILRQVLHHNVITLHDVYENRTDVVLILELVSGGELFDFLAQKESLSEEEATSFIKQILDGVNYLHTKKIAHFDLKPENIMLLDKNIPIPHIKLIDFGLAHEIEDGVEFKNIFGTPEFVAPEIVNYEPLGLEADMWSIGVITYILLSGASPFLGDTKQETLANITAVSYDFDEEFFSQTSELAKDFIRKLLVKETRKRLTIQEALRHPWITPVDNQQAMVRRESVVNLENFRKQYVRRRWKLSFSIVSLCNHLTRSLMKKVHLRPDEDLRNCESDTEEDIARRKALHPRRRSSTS
Chain of RIPK2 (O43353 whole entry): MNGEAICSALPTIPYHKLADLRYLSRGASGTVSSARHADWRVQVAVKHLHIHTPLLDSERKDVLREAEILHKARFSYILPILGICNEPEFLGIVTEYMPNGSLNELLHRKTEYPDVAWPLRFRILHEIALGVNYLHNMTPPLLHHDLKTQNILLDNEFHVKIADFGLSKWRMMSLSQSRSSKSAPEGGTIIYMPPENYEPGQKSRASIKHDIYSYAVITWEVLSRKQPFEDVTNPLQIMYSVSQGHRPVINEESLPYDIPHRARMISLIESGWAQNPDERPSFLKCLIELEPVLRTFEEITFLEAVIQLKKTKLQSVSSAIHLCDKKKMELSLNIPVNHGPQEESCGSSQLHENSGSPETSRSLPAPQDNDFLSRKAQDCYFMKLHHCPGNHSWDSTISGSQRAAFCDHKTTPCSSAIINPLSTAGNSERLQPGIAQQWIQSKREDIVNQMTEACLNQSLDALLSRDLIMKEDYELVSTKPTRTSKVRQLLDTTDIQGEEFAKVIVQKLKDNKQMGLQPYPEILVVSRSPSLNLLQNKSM
Chain of CSNK1A1L (Q8N752 whole entry): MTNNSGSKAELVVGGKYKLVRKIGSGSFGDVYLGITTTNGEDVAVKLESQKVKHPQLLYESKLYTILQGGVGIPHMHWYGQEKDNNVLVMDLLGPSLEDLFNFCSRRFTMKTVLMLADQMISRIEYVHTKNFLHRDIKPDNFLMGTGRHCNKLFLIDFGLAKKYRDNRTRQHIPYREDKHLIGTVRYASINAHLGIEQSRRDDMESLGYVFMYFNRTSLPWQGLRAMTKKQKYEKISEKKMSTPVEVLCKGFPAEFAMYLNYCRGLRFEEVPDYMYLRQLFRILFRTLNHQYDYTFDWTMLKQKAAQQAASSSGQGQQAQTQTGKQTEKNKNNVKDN

O=C(/C=C/c1cnccc1-c1ccc(F)cc1)Nc1ccc(CCc2nnco2)cc1 [T-418, (2E)-3-(4-(4-fluorophenyl)pyridin-3-yl)-N-(4-(2-(1,3,4-oxadiazol-2-yl)ethyl)phenyl)acrylamide]
remaining binding at 0.3 µM (CAMK1D; sheet T-418): 94% | remaining binding at 0.3 µM (DAPK1; sheet T-418): 100% | remaining binding at 0.3 µM (PLK2; sheet T-418): 57% | remaining binding at 0.3 µM (RIPK2; sheet T-418): 100% | remaining binding at 0.3 µM (WNK3; sheet T-418): 100% | remaining binding at 0.3 µM (DLK; sheet T-418): 91% | remaining binding at 0.3 µM (CIT; sheet T-418): 95% | remaining binding at 0.3 µM (CASK; sheet T-418): 89% | remaining binding at 0.3 µM (ROS1; sheet T-418): 100% | remaining binding at 0.3 µM (PRKX; sheet T-418): 100% | remaining binding at 0.3 µM (CSNK1A1L; sheet T-418): 92% | remaining binding at 0.3 µM (MAPKAPK5; sheet T-418): 92% | remaining binding at 0.3 µM (EPHB1; sheet T-418): 86% | remaining binding at 0.3 µM (CLK2; sheet T-418): 88% | remaining binding at 0.3 µM (DAPK2; sheet T-418): 87% | remaining binding at 0.3 µM (MLCK; sheet T-418): 88% | remaining binding at 0.3 µM (EGFR(L858R); sheet T-418): 66% | remaining binding at 0.3 µM (NEK3; sheet T-418): 100% | remaining binding at 0.3 µM (MKNK1; sheet T-418): 44% | remaining binding at 0.3 µM (NIK; sheet T-418): 100% | remaining binding at 0.3 µM (SIK2; sheet T-418): 100% | remaining binding at 0.3 µM (IKK-alpha; sheet T-418): 100%

Cc1ncccc1Oc1sc(C(N)=O)c2c1-c1c(cnn1C)CC2 [T-474, 1-methyl-8-((2-methylpyridin-3-yl)oxy)-4,5-dihydro-1H-thieno[3,4-g]indazole-6-carboxamide]
remaining binding at 0.3 µM (CAMK1D): 79% | remaining binding at 0.3 µM (DAPK1): 100% | remaining binding at 0.3 µM (PLK2): 67% | remaining binding at 0.3 µM (RIPK2): 100% | remaining binding at 0.3 µM (WNK3): 100% | remaining binding at 0.3 µM (DLK): 94% | remaining binding at 0.3 µM (CIT): 93% | remaining binding at 0.3 µM (CASK): 85% | remaining binding at 0.3 µM (ROS1): 100% | remaining binding at 0.3 µM (PRKX): 100% | remaining binding at 0.3 µM (CSNK1A1L): 100% | remaining binding at 0.3 µM (MAPKAPK5): 98% | remaining binding at 0.3 µM (EPHB1): 82% | remaining binding at 0.3 µM (CLK2): 46% | remaining binding at 0.3 µM (DAPK2): 100% | remaining binding at 0.3 µM (MLCK): 100% | remaining binding at 0.3 µM (EGFR(L858R)): 71% | remaining binding at 0.3 µM (NEK3): 100% | remaining binding at 0.3 µM (MKNK1): 50% | remaining binding at 0.3 µM (NIK): 100% | remaining binding at 0.3 µM (SIK2): 100% | remaining binding at 0.3 µM (IKK-alpha): 100%
